Assay results taken from US20130184337A1, “SODIUM ASCORBATE STIMULATION OF ELASTOGENESIS” (THE HOSPITAL FOR SICK CHILDREN, priority 2012, published 2013).
Entries after “also recorded” stand apart in the source; their conditions may differ.

Assays:
Assay type in all cases: cell-based, human
[1] = tested on: normal dermal fibroblasts; assay: Elastic fiber deposition (immuno-staining morphometry, [3H]-valine insoluble elastin) in monolayer cultures
Experimental: Cell Cultures—Fibroblasts initially grew out from the explants of these full thickness skin biopsies and were maintained. The primary cultures of fat-derived fibroblasts obtained from Thermogenesis (Rancho Cordova, Calif.) were also tested. In all described experiments, 2-4 passages of both kinds of fibroblasts were used. In experiments aimed at assessing ECM production, cells were initially plated at a concentration of 100,000 cells/dish.
Immuno-staining—All cultures maintained in the presence and absence of indicated reagents were either fixed in cold 100% methanol at −20° C. (for detection of elastin) or in 4% paraformaldehyde at room temperature (for detection of collagen I). The multiple parallel cultures were then incubated with 10 μg/ml of polyclonal antibody to tropoelastin (Elastin Products, Owensville, Mich.), or polyclonal antibody to collagen type I (Chemicon, Temecula, Calif.). Cultures were then incubated with the respective fluorescein-conjugated goat anti-rabbit, goat anti-mouse, or rabbit anti-goat secondary antibodies. Nuclei were counterstained with propidium iodide (Sigma, Sigma, St. Louis, Mo.). All of the cultures were then examined with a Nikon Eclipse E1000 microscope attached to a cooled CCD camera (QImaging, Retiga EX) and analyzed by the computer-generated morphometric analysis system (Image-Pro Plus software, Media Cybernetics, Silver Springs, Md.) as previously described.
Quantitative Assays of Insoluble Elastin—Fibroblasts were grown to confluency in 35-mm culture dishes (100,000 cells/dish). Next, 2 μCi of [3H]-valine/ml (Amersham Biosciences Ltd. Oakville, Canada), were added to each dish along with or without the indicated treatments. At the end of each experiment, the levels of metabolically labeled NaOH-insoluble elastin present in individual cultures were assayed and normalized per their DNA content.

tropoelastin mRNA = assay: RT-PCR of tropoelastin mRNA normalized to GAPDH mRNA; conditions: 50-200 μM, 18 hours, medium with 5% FBS
Experimental: One-Step RT-PCR Analysis—The confluent cultures of skin fibroblasts were treated with or without the reagents of interest for different periods of time as indicated in the figure legend. Total RNA was extracted using the RNeasy Mini Kit, and the one-step RT-PCR reactions were set up with the RT-PCR Kit, according to the manufacturer's (Qiagen, Mississauga, ON) instructions. The amounts of tropoelastin mRNA were always normalized to the amount of GAPDH mRNA.

insulin receptor = assay: Insulin receptor phosphorylation (immuno-precipitation, anti-phospho-tyrosine Western blot); conditions: 100 μM SA, basic or insulin-induced
Experimental: At the end of each experiment cells were submerged in the lysis buffer containing a broad-range phosphatase inhibitor. The polyclonal antibodies recognizing either the β subunits of the IGF-IR or the β subunit of the insulin receptor were immobilized on separate sets of the IgG-bearing magnetic beads (Invitrogen Canada Inc, Burlington, ON) and then incubated for 1 hour with the aliquots of the cell lysates containing 400 μg of protein as described in the manufacturer protocol. The beads bearing the resulting immuno-precipitation products were re-suspended in sample buffer and the released proteins were resolved with SDS-PAGE and subjected to Western blotting with a monoclonal anti-p-Tyr (PY99) antibody from Santa Cruz Biotechnology Inc. (Santa Cruz, Calif.) and then with HRP-conjugated goat anti-mouse secondary antibody.

[2] = tested on: fibroblasts derived from dermal stretch marks; assay: Collagen and elastic fiber deposition in stretch-mark fibroblast cultures; conditions: 200 μM, 24 hour-old cultures
Experimental: Cell Cultures-Fibroblasts initially grew out from the explants of these full thickness skin biopsies and were maintained. The primary cultures of fat-derived fibroblasts obtained from Thermogenesis (Rancho Cordova, Calif.) were also tested. In all described experiments, 2-4 passages of both kinds of fibroblasts were used. In experiments aimed at assessing ECM production, cells were initially plated at a concentration of 100,000 cells/dish. […] Immuno-staining-All cultures maintained in the presence and absence of indicated reagents were either fixed in cold 100% methanol at -20° C. (for detection of elastin) or in 4% paraformaldehyde at room temperature (for detection of collagen I). The multiple parallel cultures were then incubated with 10 μg/ml of polyclonal antibody to tropoelastin (Elastin Products, Owensville, Mich.), or polyclonal antibody to collagen type I (Chemicon, Temecula, Calif.). Cultures were then incubated with the respective fluorescein-conjugated goat anti-rabbit, goat anti-mouse, or rabbit anti-goat secondary antibodies. Nuclei were counterstained with propidium iodide (Sigma, Sigma, St. Louis, Mo.). All of the cultures were then examined with a Nikon Eclipse […] microscope attached to a cooled CCD camera (QImaging, Retiga EX) and analyzed by the computer-generated morphometric analysis system (Image-Pro Plus software, Media Cybernetics, Silver Springs, Md.) as previously described. Quantitative Assays of Insoluble Elastin-Fibroblasts were grown to confluency in 35-mm culture dishes (100,000 cells/dish). Next, 2 μCi of [3H]-valine/ml (Amersham Biosciences Ltd. Oakville, Canada), were added to each dish along with or without the indicated treatments. At the end of each experiment, the levels of metabolically labeled NaOH-insoluble elastin present in individual cultures were assayed and normalized per their DNA content.

normal skin explants = assay: Organ culture of skin explants (Movat pentachrome morphometry, insoluble elastin); conditions: 200 μM, 10-day-long daily treatment
Experimental: Organ culture of skin explants—Fragments of normal skin, stretch-marked skin and dermal scars collected during […] 5% FBS, in the presence or absence of 200 μM SA alone or in combination with 200 μM DMOG as described in figure legends. The parallel quadruplicate explants from each experimental group were additionally maintained in the presence 2 μCi of [3H]-valine/ml and then subjected to the assay of insoluble elastin. The parallel explants from each experimental groups were also evaluated after pentachrome Movat's staining which allows for clear marking of elastic fibers. In each experimental group, 50 sections derived from quadruplicate explants were analyzed.

explants of dermal scars = assay: Organ culture of skin explants (histochemistry, insoluble elastin); conditions: 200 μM SA
Experimental: Organ culture of skin explants—Fragments of normal skin, stretch-marked skin and dermal scars collected during plastic surgery procedures were cut into multiple 4 mm2 pieces and maintained for 7 days in DMEM medium containing 5% FBS, […] The parallel quadruplicate explants from each experimental group were additionally maintained in the presence 2 μCi of [3H]-valine/ml and then subjected to the assay of insoluble elastin. The parallel explants from each experimental groups were also evaluated after pentachrome Movat's staining which allows for clear marking of elastic fibers. In each experimental group, 50 sections derived from quadruplicate explants were analyzed.

O=C1O[C@H]([C@@H](O)CO)C([O-])=C1O.[Na+] [SA, (+)-sodium L-ascorbate]
production of immuno-detectable elastic fibers ([1]; 50 μM to 200 μM, 24-hour-old cultures, 5% FBS): significantly stimulated production of immuno-detectable elastic fibers; also recorded: upregulate production of elastic fibers | elastin deposition, SA added to IGF-1 ([1]; 100 μM SA added to 50 ng/ml IGF-1): significantly up-regulated the levels of elastin deposition | elastogenesis, SA added to dexamethasone ([1]; 100 μM SA added to 1 μM dexamethasone): did not further enhance the increase in elastogenesis | elastogenesis / net deposition of new elastic fibers ([1]; 100 μM alone, 24 hours, 5% FBS): remarkable up-regulation in the net deposition of new elastic fibers; also recorded: similarly strong elastogenic effects as treatment with 50 ng/ml of exogenous IGF-1; also recorded: upregulates elastogenesis only in cultures of dermal fibroblasts maintained in media containing 5% FBS | deposition of elastic fibers ([1]; 400 μM, 24-hour-old cultures, 5% FBS): did not further stimulate deposition of elastic fibers | elastogenesis ([1]; 800 μM, 24-hour-old cultures, 5% FBS): clear inhibition of elastogenesis; also recorded: inhibits elastogenesis | elastogenic effects in serum-free medium ([1]; SA, 18-24 hour-old cultures, serum-free medium): could not be observed in cultures maintained in serum-free medium | levels of tropoelastin-encoding mRNA (tropoelastin mRNA): significant and dose-dependent up-regulation | phosphorylation of insulin receptor (insulin receptor): did not induce heightened phosphorylation; also recorded: does not enhance basic or insulin-induced phosphorylation of insulin receptor | production of collagen fibers [2]: significantly up-regulated | production of elastic fibers / elastogenesis [2]: significantly up-regulated | deposition of new elastic fibers (normal skin explants): enhanced deposition of new elastic fibers | production of new elastic fibers (explants of dermal scars): initiated production of new elastic fibers
